Experiments:
[1] = system: femoral arteries after vascular injury; experiment: Guidewire-induced femoral artery endothelial denudation injury, neointima formation (tissue analysis, elastic staining); format: in vivo, C57BL/6 mice; details: non-diabetic mice, femoral artery guide wire injury, 4 weeks after injury, 0.083 g/kg chow (3 mg/kg/d oral)
Excerpt: 6-week-old male C57BL/6 mice were purchased and were housed in a polycarbonate cage with a wooden chip mat on the floor; water was available ad libitum. C57BL/6 mice were divided into 2 groups: control (n=14) and linagliptin-treated (n=14). At age 7 weeks, control mice were fed normal chow (22.6% protein, 53.8% carbohydrate, 5.6% fat, 6.6% mineral and vitamin mixture, and 3.3% fiber; total: 356 kcal/100 g) with vehicle; linagliptin-treated mice were fed normal chow with linagliptin (0.083 g/kg chow, which results in mean plasma levels of 50-150 nM, corresponding to an oral dose of 3 mg/kg/d). The animal room was kept on a 12-h light/dark cycle at a constant temperature (22±1° C.) with relative humidity of 55±5% throughout the experimental period. Endothelial denudation injuries were induced in the femoral artery at age 8 weeks, followed by evaluation of neointimal formation at age 12 weeks. Mouse femoral artery endothelial denudation injury was induced in C57BL/6 mice in the control and linagliptin groups at age 8 weeks, as previously described. […] Serial sections of 1.5 mm proximal region from the incision site for the wire insertion were evaluated by staining with Elastica van Gieson stain kit (4033-4037, Muto Pure Chemicals Co., Tokyo, Japan) to visualize the internal elastic lamina.

[2] = Body weight and blood glucose in non-diabetic mice; format: in vivo, C57BL/6 mice; details: linagliptin vs. control, 0.083 g/kg chow (3 mg/kg/d oral)
Excerpt: (§1) 6-week-old male C57BL/6 mice were purchased and were housed in a polycarbonate cage with a wooden chip mat on the floor; water was available ad libitum. C57BL/6 mice were divided into 2 groups: control (n=14) and linagliptin-treated (n=14). At age 7 weeks, control mice were fed normal chow (22.6% protein, 53.8% carbohydrate, 5.6% fat, 6.6% mineral and vitamin mixture, and 3.3% fiber; total: 356 kcal/100 g) with vehicle; linagliptin-treated mice were fed normal chow with linagliptin (0.083 g/kg chow, which results in mean plasma levels of 50-150 nM, corresponding to an oral dose of 3 mg/kg/d). The animal room was kept on a 12-h light/dark cycle at a constant temperature (22±1° C.) with relative humidity of 55±5% throughout the experimental period. Endothelial denudation injuries were induced in the femoral artery at age 8 weeks, followed by evaluation of neointimal formation at age 12 weeks.

[3] = system: active GLP-1; experiment: Serum active GLP-1 concentration (ELISA) in non-diabetic mice; format: in vivo, C57BL/6 mice; details: linagliptin vs. control, 0.083 g/kg chow (3 mg/kg/d oral)
Excerpt: as §1

[4] = system: rat aortic SMC; experiment: FBS-induced vascular smooth muscle cell proliferation, BrdU incorporation assay; format: cell-based; details: in vitro, 10% FBS for 24 h, 12-h pre-treatment of linagliptin
Description: Rat aortic vascular SMC (VSMC) and mouse aortic VSMC were serum-deprived in Dulbecco's modified Eagle's medium containing 0.1% fetal bovine serum (FBS) for at least 24 h and subjected to mitogenic stimulation with 10% FBS for 24 h with or without 12-h pre-treatment of linagliptin at the indicated concentration BrdU Assay. To evaluate cell proliferation of rat aortic SMC, the bromodeoxyuridine (BrdU) incorporation assay was performed using the Cell Proliferation enzyme-linked immunosorbent assay (ELISA) kit (1647229, Roche Applied Science, Mannheim, Germany) as previously described.

[5] = Plasma levels of linagliptin in mice fed linagliptin in chow; format: in vivo, C57BL/6 mice; details: 0.083 g/kg chow, corresponding to oral dose of 3 mg/kg/d
Excerpt: as §1

For `CC#CCn1c(N2CCC[C@@H](N)C2)nc2c1c(=O)n(Cc1nc(C)c3ccccc3n1)c(=O)n2C` [Linagliptin, 1-[(4-methyl-quinazolin-2-yl)methyl]-3-methyl-7-(2-butyn-1-yl)-8-(3-(R)-amino-piperidin-1-yl)-xanthine], the “neointima formation after vascular injury (intima area, media area, intima/media ratio)” value [1] was “attenuates”, the blood glucose [2] was “does not change” and the body weight [2] was “does not change”. For the same compound, the “serum active GLP-1 concentration (ELISA)” value [3] was “increases”, the “FBS-induced vascular smooth muscle (SMC) proliferation (BrdU assay)” value [4] was “reduces” and the mean plasma levels [5] was 50 to 150 nM.

Reference: US20140371243A1, “MEDICAL USE OF A DPP-4 INHIBITOR” (Boehringer Ingelheim International GmbH, priority 2013, published 2014)
